IC50 and Ki data for 28 molecules are collected here from ChEMBL document CHEMBL1136591, “Novel N1-(benzyl)cinnamamidine derived NR2B subtype-selective NMDA receptor antagonists” (Bioorg Med Chem Lett, 2003).

For the first assay, the target named is T1, Glutamate NMDA receptor; GRIN1/GRIN2B (Homo sapiens, UniProt Q05586+Q13224). The assay can be described thus: Inhibition of the response to glutamate/glycine in NR1a/NR2B expressing cells. It counts as functional, cell-based.
T1 sequence (Q13224 whole entry, other chains not shown): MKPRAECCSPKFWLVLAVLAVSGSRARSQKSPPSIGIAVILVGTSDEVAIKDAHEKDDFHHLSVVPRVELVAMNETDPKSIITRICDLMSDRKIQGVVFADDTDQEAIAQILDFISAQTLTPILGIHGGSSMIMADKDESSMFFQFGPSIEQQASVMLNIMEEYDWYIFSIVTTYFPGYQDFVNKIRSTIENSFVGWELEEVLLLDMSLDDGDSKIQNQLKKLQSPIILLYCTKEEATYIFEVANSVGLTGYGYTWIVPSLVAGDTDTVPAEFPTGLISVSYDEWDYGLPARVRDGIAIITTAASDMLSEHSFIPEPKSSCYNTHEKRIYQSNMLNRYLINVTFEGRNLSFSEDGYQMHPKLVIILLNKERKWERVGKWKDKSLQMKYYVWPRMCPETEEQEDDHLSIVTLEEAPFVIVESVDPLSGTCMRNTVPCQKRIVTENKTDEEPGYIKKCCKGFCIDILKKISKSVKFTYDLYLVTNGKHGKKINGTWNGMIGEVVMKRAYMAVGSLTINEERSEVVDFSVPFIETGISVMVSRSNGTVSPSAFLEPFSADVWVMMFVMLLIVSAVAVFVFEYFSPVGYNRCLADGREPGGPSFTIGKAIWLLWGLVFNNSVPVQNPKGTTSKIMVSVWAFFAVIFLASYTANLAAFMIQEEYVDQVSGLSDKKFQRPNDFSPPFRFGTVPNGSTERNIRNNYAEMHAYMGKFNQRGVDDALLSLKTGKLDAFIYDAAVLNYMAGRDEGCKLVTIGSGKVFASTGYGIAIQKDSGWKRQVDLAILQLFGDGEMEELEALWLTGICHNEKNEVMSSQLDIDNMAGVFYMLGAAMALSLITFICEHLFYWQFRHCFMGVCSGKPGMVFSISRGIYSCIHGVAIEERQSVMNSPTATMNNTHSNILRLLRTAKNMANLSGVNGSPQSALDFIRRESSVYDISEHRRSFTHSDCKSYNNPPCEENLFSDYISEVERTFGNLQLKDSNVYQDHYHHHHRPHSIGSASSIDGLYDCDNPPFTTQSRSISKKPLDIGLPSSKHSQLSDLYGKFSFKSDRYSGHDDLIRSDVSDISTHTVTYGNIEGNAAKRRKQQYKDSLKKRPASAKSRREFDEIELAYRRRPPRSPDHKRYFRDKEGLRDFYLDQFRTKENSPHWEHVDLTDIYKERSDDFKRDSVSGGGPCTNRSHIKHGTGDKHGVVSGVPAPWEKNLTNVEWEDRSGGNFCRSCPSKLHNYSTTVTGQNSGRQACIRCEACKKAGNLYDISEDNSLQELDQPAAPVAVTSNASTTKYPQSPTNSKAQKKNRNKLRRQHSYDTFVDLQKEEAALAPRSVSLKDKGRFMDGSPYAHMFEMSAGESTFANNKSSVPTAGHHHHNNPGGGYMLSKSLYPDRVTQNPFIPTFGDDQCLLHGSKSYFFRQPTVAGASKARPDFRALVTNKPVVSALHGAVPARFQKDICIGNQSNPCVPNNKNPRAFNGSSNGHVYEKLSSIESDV
Take `N=C(/C=C/c1ccccc1)NCc1ccccc1`: half-maximal inhibition (IC50) was put at 70 nM.

The next assay has as its target T1, Glutamate NMDA receptor; GRIN1/GRIN2B. The assay can be described thus: Displacement of [3H]ifenprodil binding to recombinant human NR1a/NR2B receptors expressed in L(tk-) cells. Type of assay: cell-based. For orientation: Loss of bound radioactivity is the signal in a displacement assay; it reports binding, not function.
As to `N=C(/C=C/c1ccccc1)NCc1cccc(C(F)(F)F)c1`, the inhibition constant (Ki) (commonly a dissociation constant, usually derived from enzyme kinetics or from competition with a known ligand) turned out to be 31 nM. For `N=C(NCc1ccccc1Cl)c1ccc2ccccc2c1`, the Ki came out at 7.3 nM. For `COc1ccccc1C/N=C(\N)c1ccc2ccccc2c1`, the Ki was 1.3 nM. In the case of `N=C(/C=C/c1ccccc1)NCc1cc(Cl)ccc1Cl`, the Ki stood at 2.7 nM. Regarding `N=C(/C=C/c1ccccc1)NCc1ccccc1C(F)(F)F`, the inhibitory constant (Ki) amounted to 1.4 nM.

On to `N=C(/C=C/c1ccccc1)NCc1ccccc1OC(F)(F)F`, for which the Ki turned out to be 0.6 nM. As to `N=C(/C=C/c1ccccc1)NCc1ccccc1Cl`, the Ki was 1 nM. As for `N=C(/C=C/c1ccccc1)NCc1cccc(Cl)c1`, the Ki was 0.8 nM. Take `N=C(NCc1cccc(Cl)c1)c1ccc2ccccc2c1`: the inhibition constant (Ki) was determined as 1.6 nM. As for `N=C(/C=C/c1cccc(Cl)c1)NCc1ccccc1`, the Ki is 12 nM. The same measure, in the same setting: then `N=C(/C=C/c1ccccc1)NCc1cc(Cl)cc(Cl)c1`, with 1.4 nM. As for `N=C(/C=C/c1ccc(F)c(F)c1)NCc1ccccc1`, the inhibition constant Ki amounted to 1.7 nM. For the molecule `N=C(/C=C/c1ccccc1)NCc1ccc(Cl)cc1`, the Ki came out at 77 nM. On the same count and under the same terms, the value for `N=C(/C=C/C1CCCCC1)NCc1ccccc1` was 19 nM; that for `N=C(/C=C/c1ccc(Cl)cc1)NCc1ccccc1` was 52 nM; that for `N=C(/C=C/c1ccccc1)NCCCc1ccccc1` was 120 nM. For `N=C(NCc1ccccc1)c1ccc2ccccc2c1`, the Ki turned out to be 32 nM. Take `COc1cccc(C/N=C(N)/C=C/c2ccccc2)c1`: the Ki amounted to 1.9 nM. For `N=C(NCCc1ccccc1)c1ccccc1`, the Ki was found to be 55 nM. Still for that read-out and setting: the value for `C[C@@H](CN1CCC(Cc2ccccc2)CC1)[C@@H](O)c1ccc(O)cc1` was 10 nM; that for `N=C(CCc1ccccc1)NCc1ccccc1` was 530 nM; that for `N=C(/C=C/c1ccccc1)NCCc1ccccc1` was 97 nM. Regarding `N=C(/C=C/c1ccc(F)cc1)NCc1ccccc1`, the inhibitory constant (Ki) was determined as 5.7 nM. On to `N=C(/C=C/c1ccccc1)NCc1cccc(Cl)c1Cl`, for which the Ki was found to be 3.6 nM. Take `NC(=NCc1ccccc1)c1ccccc1`: the Ki turned out to be 10000 nM. `N=C(/C=C/c1ccccc1Cl)NCc1ccccc1`: the Ki came to 93 nM. For the molecule `CCOc1ccccc1C/N=C(N)/C=C/c1ccccc1`, the Ki is 0.5 nM.

Another assay has as its system Glutamate NMDA receptor GRIN1/GRIN2A (Homo sapiens). As to the kind of experiment: Inhibition of the response to glutamate/glycine in NR1a/NR2A expressing cells (No effect uM).
Regarding `N=C(/C=C/c1ccccc1)NCc1ccccc1`, the concentration for half-maximal inhibition (IC50) (usually the concentration at which inhibition is half-maximal) is listed as “Not Active”.
